# Assay: gradient 5% acetonitrile 3 min, to 50% in 2 min, to 85% in 15 min, held 3 min, 100 µL/min
# Conditions: column: Zorbax Extend-C18 2.1 x 50 mm; eluents: water / acetonitrile, 0.1% formic acid
# In short: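 The system's dead and dwell volumes were 40 μL and 900 μL, with a Zorbax Extend-C18 column (2.1 × 50 mm, 1.8 μm) run at 100 μL/min in water and acetonitrile containing 0.1% formic acid each. Pure standards were analyzed in mixtures of ~100 molecules by HPLC–quadrupole time-of-flight mass spectrometry in positive and negative ionization mode. Retention time was assigned from computationally picked, manually inspected adduct peaks.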
row,Compound,RP-LC retention time [s]
1,CC1CN(S(=O)(=O)c2cccc(-c3cn4ccccc4n3)c2)CC(C)O1 (stereo not drawn),640
2,Cc1cc(S(=O)(=O)N2C[C@@H](F)C[C@H]2C(=O)N2CCCCC2)ccc1F,786
3,CCCn1c(=O)sc2cc(S(=O)(=O)N3CCC(C(=O)NCc4ccc(C)cc4)CC3)ccc21,969
4,CCNC(=O)c1n[nH]c2c1CN(C(=O)c1ccc3c(c1)OCO3)CC2,634
5,CC(C)(C)NC(=O)N(Cc1ccsc1)CC(F)(F)F,925
6,Cc1cc(C(=O)N2CCCC(c3nnc(-c4cccs4)o3)C2)no1 (stereo not drawn),694
7,O=C(C1CCN(S(=O)(=O)c2ccc(-c3ccn[nH]3)o2)CC1)N1CCN(c2ccccn2)CC1,594
8,O=C(C1CCC1)N1CCC(c2noc(-c3cnccn3)n2)C1 (stereo not drawn),655
9,CCOC(=O)C1=C(CN2CCN(C(C)CC)CC2)NC(=O)NC1c1ccccc1 (stereo not drawn),625
10,COc1ccc(N2C=C(C#N)S(=O)(=O)c3ccc(F)cc32)cc1OC,893
11,Cc1c([C@@H](C)C2NC[C@@H](C)C[C@H]2O)ccc2c1C[C@@H]1[C@H]2CC=C2C[C@@H](O)CC[C@@]21C (stereo partly drawn),749
12,Cc1ccc(Nc2ncccc2S(N)(=O)=O)cc1,795
13,O=C(N[C@H]1C[C@@H]2C[C@H]1CN2C(=O)Nc1ccc2c(c1)OCO2)c1cccs1,623
14,COc1cc(OC)cc(C(=O)N2C[C@@H]3C[C@H]2C[C@@H]3NC(=O)c2ccccc2)c1,732
15,O=S(=O)(NC1CCCCCCC1)c1ccc2c(c1)-c1oncc1CO2,1030
16,Cc1ccc(N2CCC(NC(=O)c3cccc(F)c3)C2=O)cc1C (stereo not drawn),891
17,CNC(=O)c1cc(C)nc2ccc(C(C)C)cc12,596
18,Cc1nn(-c2ccccc2)c(C)c1S(=O)(=O)N1CCC(C(=O)NC2CCCC2)CC1,860
19,Cc1csc(-c2cc(S(=O)(=O)N3CCN(C(C)C)CC3)cn2CC(=O)N2CCCCC2)n1,688
20,O=C1C2N=NN(c3ccc(F)cc3)C2C(=O)N1c1ccccc1 (stereo not drawn),914
21,CN(C)S(=O)(=O)N1CCC(n2c(Cc3ccccc3)nn(C)c2=O)CC1,748

row,Compound,RP-LC retention time [s]
1,COc1ccc(OCC(=O)N2CCN(c3nc(CN4CCOCC4)cs3)CC2)cc1,611
2,Cc1nc(C(=O)Nc2ccccc2)c(C)o1,809
3,CCNc1nc(NC(C)C)nc(-n2cnc(SC)n2)n1,897
4,O=C(NC1CCCCC1)NC1CCN(C(=O)C2CCC2)C1 (stereo not drawn),680
5,COCCNC(=O)C1CCN(S(=O)(=O)c2ccc3c(c2)NC(=O)CO3)CC1,862
6,COc1cccc2c1ccn2CCNC(=O)C1CC(=O)N(c2n[nH]c3ccccc23)C1 (stereo not drawn),722
7,CCNC(=O)C1CCCN(c2nc3ncn(CC(=O)Nc4cc(F)cc(F)c4)c(=O)c3s2)C1 (stereo not drawn),688
8,Cc1ccc(C(=O)NCc2ccc3c(c2)ncn3C)c(C)c1,611
9,CCCNC(=O)C1CCN(c2nc3ccc(-c4ccccc4F)nc3s2)CC1,951
10,Cc1ccc(Cl)cc1N1CCN(C(=O)C2CCN(S(=O)(=O)c3cn(C(C)C)cn3)CC2)CC1,964
11,CN1CCN(c2ncncc2N2CCC(C(=O)N3CCN(c4ccccc4)CC3)CC2)CC1,570
12,CN(Cc1ccccc1)C(=O)C1CCCN(c2nnc(N3CCCC3=O)s2)C1 (stereo not drawn),718
13,Cc1c(C(=O)NCC(c2cccs2)N2CCCC2)oc2ccc(Cl)cc12 (stereo not drawn),730
14,Cc1c(C(=O)C(=O)Nc2ccc(F)cc2)c2ccccc2n1C,921
15,O=C(COc1coc(CN2CCc3ccccc32)cc1=O)NCc1ccc2c(c1)OCO2,781
16,CCCCNC(=O)c1ccc(-c2ccc3c(c2)CCN3C(C)=O)cc1,832
17,O=C(NCCc1ccsc1)C1CC(=O)N(c2ccc(F)cc2)C1 (stereo not drawn),698
18,COC(=O)c1ncn2c1C(=O)N(c1ccc(F)cc1)C(C)(C(=O)NCc1ccccc1)C2 (stereo not drawn),691
19,COc1ccc(-n2ccnc2SCC(=O)NCc2ccc3c(c2)OCO3)c(OC)c1,630
20,CCOc1ccc(S(=O)(=O)N2CC(F)(F)C[C@H]2CN2CCc3ccccc3C2)cc1,798
21,COc1ccc(C(=O)N2CCc3cc(-c4csc(C)n4)ccc32)c(OC)c1,965

row,Compound,RP-LC retention time [s]
1,Cc1ccc(Nc2cc(N3CCC(C(=O)N4CCSCC4)CC3)ncn2)cc1,682
2,CCNC(=O)c1nc(C(=O)NC2CCCCC2)cs1,783
3,O=S(=O)(C1CC1)N1CCCCC1c1nncn1CC1CC1 (stereo not drawn),578
4,O=C(Cc1ccccc1)NCCSc1c[nH]c2ccccc12,790
5,COc1cc(NC(=O)C2CCN(S(=O)(=O)c3ccc4c(c3)CCCC(=O)N4)CC2)cc(OC)c1,762
6,COc1ccc(N2C=C(C#N)S(=O)(=O)c3cc(F)ccc32)c(OC)c1,893
7,CCc1ccccc1NC(=O)Cc1c(C)nn(-c2nc(-c3ccccc3)cs2)c1C,704
8,Cn1ncc2c(N3CCSCC3)nc(C(=O)NCCc3ccc(Cl)cc3)nc21,913
9,COc1ccc2c(c1)C1(CCN(C(=O)Cc3ccc(C)cc3)C1)C(=O)N2C (stereo not drawn),854
10,O=C(CSCc1ccccc1)NCC#CCN1CCc2ccccc2C1,581
11,CCCCCn1c(=O)c2ccccc2n(Cc2nc(-c3cc(OC)c(OC)c(OC)c3)no2)c1=O,646
12,CCCN1C(=O)c2cc(C(=O)NCCc3ccccc3)nn2CC1(C)C(=O)NC1CCCC1 (stereo not drawn),864
13,COc1ccc(C)cc1NC(=O)N1CCN(Cc2nc3cc(C)ccc3o2)CC1,761
14,O=C(NC1CCCCCC1)C1CCN(S(=O)(=O)c2cc(C(=O)N3CCCCCC3)cs2)CC1,956
15,Cc1ccc(N2CCN(Cc3nc(-c4ccc(N5CCCCC5)nc4)no3)CC2)cc1,901
16,Cc1noc(C)c1Cc1c(C(=O)NCC23CCCC=C2NC(=O)CC3)noc1C (stereo not drawn),726
17,Cn1c(=O)c(=O)n(C)c2cc(N3CCCCC3)c(NC(=O)CN3CCCCC3)cc21,592
18,COc1cc(C2CC(=O)N(CC(=O)N3CCCC3)c3ccccc3S2)cc(OC)c1OC (stereo not drawn),792
19,CCOc1ccccc1C(=O)NC1CCN(c2cc(-c3cccs3)[nH]n2)C1 (stereo not drawn),769

# The remaining lines, values ahead:
row,RP-LC retention time [s],Compound
1,1100,CN(C)c1cccc(-c2nc(-c3cn(-c4ccc(F)cc4)nn3)no2)c1
2,853,O=C(CSc1n[nH]c(-c2ccc(F)cc2)n1)Nc1ccc(F)cc1F
3,603,CC(NC(=O)c1ccc2nc(-c3ccc(Cl)cc3)cn2c1)c1cccnc1 (stereo not drawn)
4,919,COc1ccccc1-n1ccnc(NC(=O)Nc2cccc(F)c2)c1=O
5,798,COc1ccc(Cl)cc1NC(=O)N1CCN(c2cc(C)nc(Nc3ccc(C)cc3)n2)CC1
6,703,COc1ccc(-c2noc(C3CCN(CC(=O)Nc4ccc5c(c4)OCO5)CC3)n2)cc1
7,853,O=C(Cc1ccc(Cl)cc1)NC1CCN(c2ccc(F)cc2)C1=O (stereo not drawn)
8,949,O=C(NCCc1cccs1)c1ccc2nc(Cc3ccccc3)oc2c1
9,848,CCOc1ccccc1NC(=O)CN1CCN(Cc2ccc(C)cc2)C(=O)C1=O
10,661,COc1ccc(-c2cc3nn(CC(=O)Nc4ccccc4)c(=O)n3c(C)n2)cc1
11,660,Cc1cccc(NC(=O)N2CCc3nc(-c4ccc(Cl)cc4)ncc3C2)c1C
12,703,O=C(NCc1ccccn1)c1ccc2c(c1)CCCN2S(=O)(=O)c1ccccc1
13,678,CCCNC(=O)Cn1ccc2ccc(-c3nnc(C)o3)cc21
14,745,COc1ccc(-c2c(C(=O)O)nnn2-c2ccc3c(c2)OCO3)cc1
15,798,O=S(=O)(c1cccnc1)N1CC(n2cc(COc3ccc(F)cc3)nn2)C1
16,882,CCC(NC(=O)c1cnc(-c2ccccc2)nc1-c1ccncc1)c1ccc(OC)cc1 (stereo not drawn)
17,841,CC(=O)c1ccc(N(C(C)=O)S(=O)(=O)c2ccc(Cl)cc2)cc1
18,946,O=C(Nc1cccc(OCc2nnc(-c3ccc(Cl)cc3)o2)c1)c1cnccn1
19,732,CSc1ccc(CNC(=O)c2ccc3ccnc(N4CCN(C(=O)c5ccco5)CC4)c3c2)cc1
20,618,Cc1nnc(-c2ccc3ccn(CC(=O)Nc4ncccc4C)c3c2)o1
21,806,COCCn1cc(CCNC(=O)Nc2ccc(Cl)cc2F)c2cccnc21
22,997,COc1cccc(-c2ccc(=O)n(Cc3nc(-c4ccccc4Br)no3)n2)c1
23,728,COc1ccc(CC(=O)NC2CCN(c3cc(-c4ccc(Cl)cc4)[nH]n3)C2)cc1OC (stereo not drawn)
24,1030,Cc1cc(C)cc(C(=O)Nc2ccc3c(c2)Sc2ncccc2C(=O)N3C(C)C)c1
25,570,O=C(NCCn1nc(-c2ccncc2)ccc1=O)c1ccc(C(F)(F)F)cc1
26,976,Cc1cc(C(=O)Nc2nc(-c3ccc(F)cc3)c(C)s2)no1
27,815,CC(=O)Nc1ccc(C)cc1S(=O)(=O)N1CCc2c(c(-c3nnc(-c4ccccc4)o3)nn2C)C1
